{"source": "paper PMC4636954", "about": "(Journal of ethnopharmacology, 2015)", "key": {"μ opioid receptor [1]": {"target": "T1, μ opioid receptor (Homo sapiens, UniProt P35372)", "assay": "μ opioid competitive radioligand binding", "settings": "for Opioid receptor displacement (%) μ: Tested at 10 µM"}, "δ opioid receptor [2]": {"target": "T2, δ opioid receptor (Homo sapiens, UniProt P41143)", "assay": "δ opioid competitive radioligand binding", "settings": "for Opioid receptor displacement (%) δ: Tested at 10 µM"}, "κ opioid receptor": {"target": "κ opioid receptor (Homo sapiens, UniProt P41145)", "assay": "κ opioid competitive radioligand binding", "settings": "for Opioid receptor displacement (%) κ: Tested at 10 µM"}, "[3]": {"system": "Adult male Swiss Webster mice", "assay": "Mouse tetrad assay", "settings": "for Catalepsy Latency / Hotplate Latency (% MPE) / Tail-Flick Latency (% MPE) / Rectal temperature (°C): 30 min post-injection; for Rectal temperature (°C): change in core body temperature"}, "δ opioid receptor [4]": {"target": "T2, δ opioid receptor", "assay": "In vitro GTPγS functional assay, δ-opioid", "format": "biochemical"}, "μ opioid receptor [5]": {"target": "T1, μ opioid receptor", "assay": "In vitro GTPγS functional assay, μ-opioid", "format": "biochemical"}, "[6]": {"settings": "ip, dose not stated or 'lower doses' (10–100 mg/kg tested)"}}, "note": "Read-outs that look alike come from different tables or passages of the source.", "data": [{"compound": "O-methylcoclaurine [Compound 5]", "values": [{"measurement": "Ki", "setting": "μ opioid receptor [1]; read-out: μ Ki (µM) ± SEM", "value": "2 ± 0.3", "unit": "µM"}, {"measurement": "Ki", "setting": "δ opioid receptor [2]; read-out: δ Ki (µM) ± SEM", "value": "22.6 ± 3.9", "unit": "µM"}, {"measurement": "Ki", "setting": "κ opioid receptor; read-out: κ Ki (µM) ± SEM", "value": "3.5 ± 0.3", "unit": "µM"}]}, {"compound": "COc1cc2c(cc1O)[C@@H](Cc1ccc(O)cc1)N(C)CC2", "note": "[Compound 6, N-methylcoclaurine]", "values": [{"measurement": "Ki", "setting": "μ opioid receptor [1]; read-out: μ Ki (µM) ± SEM", "value": "4 ± 0.5", "unit": "µM"}, {"measurement": "Ki", "setting": "δ opioid receptor [2]; read-out: δ Ki (µM) ± SEM", "value": "20.1 ± 3.1", "unit": "µM"}, {"measurement": "Ki", "setting": "κ opioid receptor; read-out: κ Ki (µM) ± SEM", "value": "0.9 ± 0.1", "unit": "µM"}]}, {"compound": "COc1cc2c3c(c1OC)-c1ccccc1C[C@H]3N(C)CC2", "note": "[Compound 1, nuciferine]", "values": [{"measurement": "Catalepsy Latency", "setting": "[3]; 10 mg/kg ip", "value": "3.875 ± 2.32", "unit": "s"}, {"measurement": "Hotplate Latency (% MPE)", "setting": "[3]; 10 mg/kg ip", "value": "6.99 ± 2.61", "unit": "% MPE"}, {"measurement": "Tail-Flick Latency (% MPE)", "setting": "[3]; 10 mg/kg ip", "value": "11.69 ± 6.074", "unit": "% MPE"}, {"measurement": "Rectal temperature (°C)", "setting": "[3]; 10 mg/kg ip", "value": "−0.49 ± 0.31", "unit": "°C"}, {"measurement": "Catalepsy Latency", "setting": "[3]; 30 mg/kg ip", "value": "1.750 ± 0.62", "unit": "s"}, {"measurement": "Hotplate Latency (% MPE)", "setting": "[3]; 30 mg/kg ip", "value": "3.69 ± 3.01", "unit": "% MPE"}, {"measurement": "Tail-Flick Latency (% MPE)", "setting": "[3]; 30 mg/kg ip", "value": "18.43 ± 10.50", "unit": "% MPE"}, {"measurement": "Rectal temperature (°C)", "setting": "[3]; 30 mg/kg ip", "value": "−0.91 ± 0.31", "unit": "°C"}, {"measurement": "Catalepsy Latency", "setting": "[3]; 75 mg/kg ip", "value": "3.500 ± 1.07", "unit": "s"}, {"measurement": "Hotplate Latency (% MPE)", "setting": "[3]; 75 mg/kg ip", "value": "0.68 ± 2.73", "unit": "% MPE"}, {"measurement": "Tail-Flick Latency (% MPE)", "setting": "[3]; 75 mg/kg ip", "value": "19.45 ± 6.16", "unit": "% MPE"}, {"measurement": "Rectal temperature (°C)", "setting": "[3]; 75 mg/kg ip", "value": "−1.68 ± 0.38", "unit": "°C"}, {"measurement": "Catalepsy Latency", "setting": "[3]; 100 mg/kg ip", "value": "1.500 ± 0.27", "unit": "s"}, {"measurement": "Hotplate Latency (% MPE)", "setting": "[3]; 100 mg/kg ip", "value": "21.78 ± 7.16", "unit": "% MPE"}, {"measurement": "Tail-Flick Latency (% MPE)", "setting": "[3]; 100 mg/kg ip", "value": "14.14 ± 15.52", "unit": "% MPE"}, {"measurement": "Rectal temperature (°C)", "setting": "[3]; 100 mg/kg ip", "value": "−3.8 ± 0.57", "unit": "°C"}, {"measurement": "Behavioral effects in tetrad assay (in words)", "setting": "[3]; 100 mg/kg/ip", "value": "only decreased locomotion and hypothermia at the same dose, but failed to display catalepsy and antinociceptive activity"}, {"measurement": "Behavioral effects in tetrad assay (in words)", "setting": "[3]; [6]", "value": "failed to show any cataleptic effect or toxicity in the form of tremors and convulsions"}]}, {"compound": "CCCCCCCCCCCCCCCC(=O)O", "note": "[Palmitic acid (PA), palmitic acid]", "values": [{"measurement": "Ki", "setting": "δ opioid receptor [2]", "value": "> 21.1", "unit": "µM"}]}, {"compound": "Oc1ccc(CC2NCCc3cc(O)c(O)cc32)cc1", "note": "(racemic) [Compound 11, (±)-higenamine]", "values": [{"measurement": "Opioid receptor displacement (%) μ", "setting": "μ opioid receptor [1]", "value": "did not show any significant displacements"}, {"measurement": "Opioid receptor displacement (%) δ", "setting": "δ opioid receptor [2]", "value": "did not show any significant displacements"}, {"measurement": "Opioid receptor displacement (%) κ", "setting": "κ opioid receptor", "value": "did not show any significant displacements"}]}, {"compound": "COc1cc2c(cc1O)C(Cc1ccc(O)cc1)NCC2", "note": "(stereo not shown) [Compound 7, coclaurine]", "values": [{"measurement": "Ki", "setting": "μ opioid receptor [1]", "value": "5 ± 0.7", "unit": "µM"}, {"measurement": "Catalepsy Latency", "setting": "[3]; 10 mg/kg ip", "value": "1.25 ± 0.25", "unit": "s"}, {"measurement": "Hotplate Latency (% MPE)", "setting": "[3]; 10 mg/kg ip", "value": "10.15 ± 4.45", "unit": "% MPE"}, {"measurement": "Tail-Flick Latency (% MPE)", "setting": "[3]; 10 mg/kg ip", "value": "16.57 ± 7.23", "unit": "% MPE"}, {"measurement": "Rectal temperature (°C)", "setting": "[3]; 10 mg/kg ip", "value": "0.17 ± 0.08", "unit": "°C"}, {"measurement": "Catalepsy Latency", "setting": "[3]; 30 mg/kg ip", "value": "2.37 ± 0.59", "unit": "s"}, {"measurement": "Hotplate Latency (% MPE)", "setting": "[3]; 30 mg/kg ip", "value": "5.46 ± 5.05", "unit": "% MPE"}, {"measurement": "Tail-Flick Latency (% MPE)", "setting": "[3]; 30 mg/kg ip", "value": "1.43 ± 6.95", "unit": "% MPE"}, {"measurement": "Rectal temperature (°C)", "setting": "[3]; 30 mg/kg ip", "value": "0.1 ± 0.15", "unit": "°C"}, {"measurement": "Catalepsy Latency", "setting": "[3]; 75 mg/kg ip", "value": "1.75 ± 0.41", "unit": "s"}, {"measurement": "Hotplate Latency (% MPE)", "setting": "[3]; 75 mg/kg ip", "value": "15.49 ± 3.57", "unit": "% MPE"}, {"measurement": "Tail-Flick Latency (% MPE)", "setting": "[3]; 75 mg/kg ip", "value": "13.95 ± 5.01", "unit": "% MPE"}, {"measurement": "Rectal temperature (°C)", "setting": "[3]; 75 mg/kg ip", "value": "−0.39 ± 0.05", "unit": "°C"}, {"measurement": "Catalepsy Latency", "setting": "[3]; 100 mg/kg ip", "value": "1.25 ± 0.25", "unit": "s"}, {"measurement": "Hotplate Latency (% MPE)", "setting": "[3]; 100 mg/kg ip", "value": "6.08 ± 1.9", "unit": "% MPE"}, {"measurement": "Tail-Flick Latency (% MPE)", "setting": "[3]; 100 mg/kg ip", "value": "10.07 ± 3.31", "unit": "% MPE"}, {"measurement": "Rectal temperature (°C)", "setting": "[3]; 100 mg/kg ip", "value": "−0.58 ± 0.23", "unit": "°C"}, {"measurement": "Behavioral effects in tetrad assay (in words)", "setting": "[3]; [6]", "value": "did not influence any significant behavioral effects with the exception of weak locomotor activity"}, {"measurement": "Ki", "setting": "δ opioid receptor [2]", "value": "21.1 ± 2", "unit": "µM"}, {"measurement": "Ki", "setting": "κ opioid receptor", "value": "2.2 ± 0.2", "unit": "µM"}]}, {"compound": "COc1ccc(CC2c3cc(OC)c(OC)cc3CCN2C)cc1", "note": "(stereo not shown) [Compound 13, 4´,7-di-O-methylarmepavine]", "values": [{"measurement": "Opioid receptor displacement (%) μ", "setting": "μ opioid receptor [1]", "value": "did not show any significant displacements"}, {"measurement": "Opioid receptor displacement (%) δ", "setting": "δ opioid receptor [2]", "value": "did not show any significant displacements"}, {"measurement": "Opioid receptor displacement (%) κ", "setting": "κ opioid receptor", "value": "did not show any significant displacements"}]}, {"compound": "COc1cc2c(cc1OC)C(Cc1ccc(O)cc1)N(C)CC2", "note": "(stereo not shown) [Compound 4, armepavine]", "values": [{"measurement": "Ki", "setting": "μ opioid receptor [1]; read-out: μ Ki (µM) ± SEM", "value": "2.7 ± 0.8", "unit": "µM"}, {"measurement": "Ki", "setting": "δ opioid receptor [2]; read-out: δ Ki (µM) ± SEM", "value": "23.8 ± 3.7", "unit": "µM"}, {"measurement": "Ki", "setting": "κ opioid receptor; read-out: κ Ki (µM) ± SEM", "value": "13 ± 1.4", "unit": "µM"}]}, {"compound": "COc1ccc(C[C@@H]2c3cc(OC)c(OC)cc3CCN2C)cc1", "note": "[Compound 12, 4´-O-methylarmepavine]", "values": [{"measurement": "Opioid receptor displacement (%) μ", "setting": "μ opioid receptor [1]", "value": "did not show any significant displacements"}, {"measurement": "Opioid receptor displacement (%) δ", "setting": "δ opioid receptor [2]", "value": "did not show any significant displacements"}, {"measurement": "Opioid receptor displacement (%) κ", "setting": "κ opioid receptor", "value": "did not show any significant displacements"}]}, {"compound": "COc1ccc(C[C@@H]2c3cc(Oc4cc(C[C@@H]5c6cc(OC)c(OC)cc6CCN5C)ccc4O)c(OC)cc3CCN2C)cc1", "note": "[Compound 10, neferine]", "values": [{"measurement": "EC50", "setting": "δ opioid receptor [4]", "value": "7.9 ± 2.1", "unit": "µM"}, {"measurement": "Ki", "setting": "μ opioid receptor [1]", "value": "1.8 ± 0.2", "unit": "µM"}, {"measurement": "EC50", "setting": "μ opioid receptor [5]", "value": "> 21", "unit": "µM"}, {"measurement": "Functional character at μ opioid receptor by GTPγS assay", "setting": "μ opioid receptor [5]; in words", "value": "weak μ partial agonist"}, {"measurement": "Ki", "setting": "δ opioid receptor [2]", "value": "0.7 ± 0.1", "unit": "µM"}, {"measurement": "Ki", "setting": "κ opioid receptor", "value": "3.3 ± 0.4", "unit": "µM"}]}, {"compound": "CCCCC/C=C\\C/C=C\\CCCCCCCC(=O)O", "note": "[Linoleic acid (LA), linoleic acid]", "values": [{"measurement": "Ki", "setting": "δ opioid receptor [2]", "value": "14.5 ± 2.4", "unit": "µM"}]}]}
